In ChEMBL document CHEMBL1129417, “Glucose transport-enhancing and hypoglycemic activity of 2-methyl-2-phenoxy-3-phenylpropanoic acids” (1996):

How the values were obtained:
Mus musculus [1] = test: In vivo hypoglycemic activity expressed as glucose lowering relative to positive control in 6-8 week old C57BL/6J ob/ob mouse at 5 mg/kg.; type: functional
Rattus norvegicus [2] = organism: Rattus norvegicus; test: Percentage inhibition of Glucagon-stimulated Gluconeogenesis in Isolated Rat Hepatocytes in vitro; type: functional, Hepatocyte
Rattus norvegicus [3] = organism: Rattus norvegicus; test: Inhibition of gluconeogenesis in rat; type: functional
Mus musculus [4] = test: In vivo hypoglycemic activity expressed as glucose lowering relative to positive control in 6-8 week old C57BL/6J ob/ob mouse at 10 mg/kg; type: functional
Mus musculus [5] = test: compound was tested in vivo for hypoglycemic activity expressed as Glucose lowering relative to positive control in 6-8 week old C57BL/6J ob/ob mouse at 50 mg/kg; type: functional
Rattus norvegicus [6] = organism: Rattus norvegicus; test: Percentage inhibition of basal stimulated Gluconeogenesis in Isolated Rat Hepatocytes in vitro; type: functional, Hepatocyte
3T3-L1 [7] = test: In vitro measurements 2-Deoxyglucose (2DG) uptake in vehicle treated 3T3-L1 adipocytes at 100 uM dose.; type: functional
3T3-L1 [8] = test: In vitro by measurements of 2-Deoxyglucose (2DG) uptake in vehicle treated 3T3-L1 adipocytes at 3 uM dose.; type: functional
Mus musculus [9] = test: compound was tested in vivo for hypoglycemic activity expressed as Glucose lowering relative to positive control in 6-8 week old C57BL/6J ob/ob mouse at 2.5 mg/kg; type: functional
3T3-L1 [10] = test: compound was evaluated for their acute effects in vitro by measuring 2-Deoxyglucose (2DG) uptake in vehicle treated 3T3-L1 adipocytes at 1 uM dose.; type: functional
Mus musculus [11] = test: In vivo hypoglycemic activity expressed as glucose lowering relative to positive control in 6-8 week old C57BL/6J ob/ob mouse at 1 mg/kg.; type: functional
3T3-L1 [12] = test: compound was evaluated for their acute effects in vitro by measuring 2-Deoxyglucose (2DG) uptake in vehicle treated 3T3-L1 adipocytes at 0.5 uM dose.; type: functional
3T3-L1 [13] = test: Acute effects in vitro by measuring 2-deoxyglucose (2DG) uptake in vehicle treated 3T3-L1 adipocytes at 10 uM dose.; type: functional
3T3-L1 [14] = test: In vitro measurements of 2-Deoxyglucose (2DG) uptake in vehicle treated 3T3-L1 adipocytes at 60 uM dose.; type: functional
3T3-L1 [15] = test: Acute effects in vitro by measuring 2-deoxyglucose (2DG) uptake in vehicle treated 3T3-L1 adipocytes at 30 uM dose.; type: functional

| SMILES | Hypoglycemic activity (Mus musculus [1]) | Inhibition (Rattus norvegicus [2]) | ED50 (Rattus norvegicus [3]; Rattus norvegicus, read-out: ED50) | Hypoglycemic activity (Mus musculus [4]) | Hypoglycemic activity (Mus musculus [5]) | Inhibition (Rattus norvegicus [6]) | Basal uptake (3T3-L1 [7]) | Basal uptake (3T3-L1 [8]) | Hypoglycemic activity (Mus musculus [9]) | Basal uptake (3T3-L1 [10]) | Hypoglycemic activity (Mus musculus [11]) | Basal uptake (3T3-L1 [12]) | Basal uptake (3T3-L1 [13]) | ED50 (Rattus norvegicus [3]) | Hypoglycemic activity (Mus musculus [4]; 10 mg/kg) | Basal uptake (3T3-L1 [14]) | Basal uptake (3T3-L1 [15]) |
| --- | --- | --- | --- | --- | --- | --- | --- | --- | --- | --- | --- | --- | --- | --- | --- | --- | --- |
| CC(C)c1ccc(OC(Cc2ccc(Cl)cc2)C(=O)O)cc1 (stereo not drawn) | 26% | 20% | 10 mg/kg | 58% | 82% | 32% | 150% |  |  |  |  |  |  |  |  |  |  |
| CC(C)c1ccc(OC(C)(C(=O)O)C(C)c2ccc(Cl)cc2)cc1 (stereo in doubt; 84) | 77% |  |  |  |  |  |  | 102% | 62% | 99% | <0% | 98% | 131% | 2.5 mg/kg | 142% | 214% | 128% |
